Assay results published in US20260123631A1, “NATURAL PORPHIN SALT AND USE THEREOF AS PLANT GROWTH REGULATOR AND PLANT IMMUNITY INDUCER” (NANJING BOSTEC BIOLOGICAL ENGINEERING CO., LTD, priority 2022, published 2026).

Tests used:
cotton = assay: Cotton yield in the verticillium wilt experiment; assay type: in vivo, cotton (Xinluzhong 66)
Description: (§1) Method: A total of five treatments were set, including: the sample in three concentrations; the positive control; and the blank control. An agent was sprayed once at each of a seedling stage (May 28) and a bud stage (June 28) of cotton, where a concentration was adjusted each time. Concentration changes of the sodium iron chlorophyllin and controls (first to fifth treatments) were as follows:
The harvesting was conducted on Nov. 15, 2020. […] The growth of cotton was first counted. Then, the harvesting was conducted, and a yield increase rate was calculated.

mung bean seedlings = assay: Inducing adventitious roots from hypocotyls of mung bean; assay type: in vivo; conditions: day 7
Description: Test solution preparation: 8 mL of a commercially-available STANLEY universal hydroponic nutrient solution was taken and diluted with tap water to 3,200 mL (400-fold dilution) to produce a dilute nutrient solution. An appropriate amount of each of salt samples such as protoporphyrin disodium and potassium chlorhematin was weighed and prepared with the dilute nutrient solution into 0.010 ppm and 0.1 ppm sample test solutions, and 150 mL of each test solution was taken. 150 mL of the dilute nutrient solution was taken as a blank control. The test solutions and the control solution were placed in brown bottles, and the brown bottles were sealed with a black film. Mung bean seedlings with uniform growth and a seedling height of 7 cm to 8 cm were selected, and cut at 3 cm below a first true leaf node. 8 mung bean seedlings were inserted into each bottle (with roots removed) to make lower radicles soaked in a solution. Mung bean seedlings were treated at room temperature of 20° C. to 25° C. for 7 d in total, during which the solution was changed every 2 d. On day 2 to day 3 of the treatment, there was a significant difference. On day 7, the observation and determination were conducted. An average adventitious root number and an average total adventitious root length for each seedling were calculated, and results were shown in the following table: […]

rice = assay: Spraying on flooded rice; assay type: in vivo, rice (Nanjing 9108); conditions: 10.0 ppm solution, 1.2 L/mu (12.0 mg/mu), aerial application after 10 d waterlogging; moisture content 16.5%
Description: Waterlogging: On Jul. 10, 2021, an area of 20 mu was flooded. The floodwater receded on July 20. During the 10 d of waterlogging, the plant was totally submerged for nearly 4 d and was mostly submerged for nearly 6 d. After the floodwater receded, rice plants were weak and had yellow and drooping leaves.
Method: A 10.0 ppm sodium iron chlorophyllin solution was sprayed on 10 mu of land through aerial application at an average amount of 1.2 L/mu (sodium iron chlorophyllin amount: 12.0 mg/mu). 10 mu of land was taken as a blank control (0 mg/mu).

[1] = Stability of sample solutions in the dark/under light; assay type: physicochemical; conditions: under light 30,000 lux, salts in water, acidic reference in 30% to 50% ethanol
How it was run: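 Salt in water, or acidic reference in 30–50% aqueous ethanol, at about 10 ppm; UV absorbance scanned 200–800 nm at 0, 1, 2, 3 h, stored at 25° C dark or under 30,000 lux light. Relative content = max-peak absorbance at each time divided by 0 h value (100%).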

[2] = Dilution and pH determination for sample solutions; assay type: physicochemical
Description: Method: 0.2500 g of a sample was accurately weighed and added to a 25 mL volumetric flask, dissolved with purified water, and diluted to a specified scale to prepare a 1.00% (10,000.0 ppm) initial solution. The initial solution was diluted with purified water in different ratios to prepare a series of solutions with a concentration of 1,000.0 ppm to 0.1 ppm. A pH value of each sample was determined three times.

[3] = test system: verticillium wilt in cotton; assay: Spraying on cotton to control verticillium wilt; assay type: in vivo, cotton (Xinluzhong 66)
From the text: as §1, with “follows: [table] […] A three-point survey method was adopted for each treatment, and 100 plants were selected at each point. A control effect was surveyed.” for “follows:”

tomato = assay: Spraying on tomato to increase a yield; assay type: in vivo, tomato (Jinfan 1615); conditions: 0.05 ppm sprayed twice; for Yield increase rate: versus control
Description: During cultivation, flat planting, plastic mulching, seedling transplanting, and pressurized drip irrigation were adopted. On April 29, seedlings were transplanted at 2,600 seedlings/mu. An area of 20 mu was adopted for each of control and treatment groups. Each treatment region was sprayed with a sodium iron chlorophyllin solution at a concentration of 0.05 ppm twice in an early flowering stage (May 22, 2021) and a fruit setting stage (Jun. 5, 2021), respectively.
The harvesting was conducted on August 3. During the harvesting, 5 plants were continuously and randomly selected from each treatment for sampling statistics.

chlorophyllase = assay: In vitro chlorophyllase-inhibiting activity test; assay type: biochemical, mung bean; conditions: substrate chlorophyll 120 ppm, sample 0.3 ppm to 30.0 ppm
Description: A chlorophyllase inhibition rate of a salt sample solution at each concentration was determined, and an IC50 value for a chlorophyllase inhibition activity of a salt sample was calculated.

[4] = First treatment (0.167 / 0.500 ppm)
[5] = Second treatment (0.500 / 0.188 ppm)
[6] = Third treatment (1.000 / 0.833 ppm)
[7] = First treatment (0.167 ppm seedling stage, 0.500 ppm bud stage), first survey (June 28)
[8] = First treatment (0.167 ppm seedling stage, 0.500 ppm bud stage), second survey (August 10)
[9] = Second treatment (0.500 ppm seedling stage, 0.188 ppm bud stage), first survey (June 28)
[10] = Second treatment (0.500 ppm seedling stage, 0.188 ppm bud stage), second survey (August 10)
[11] = Third treatment (1.000 ppm seedling stage, 0.833 ppm bud stage), first survey (June 28)
[12] = Third treatment (1.000 ppm seedling stage, 0.833 ppm bud stage), second survey (August 10)

In the case of sodium iron chlorophyllin, the “Actual seed cotton yield per mu” value (cotton; [4]) is reported as 380.8 kg/mu, the “Average cotton boll weight” value (cotton; [4]) is reported as 5.2 g and the “Effective cotton boll number in 0.01 mu” value (cotton; [4]) is reported as 812.0. For the same substance, the Yield increase rate (cotton; [4]) was 7.94%, the “Actual seed cotton yield per mu” value (cotton; [5]) was 374.9 kg/mu and the “Average cotton boll weight” value (cotton; [5]) was 5.3 g. The “Effective cotton boll number in 0.01 mu” value (cotton; [5]) was 786.1, the “Actual seed cotton yield per mu” value (cotton; [6]) was 386.9 kg/mu and the “Average cotton boll weight” value (cotton; [6]) was 5.3 g. For the same substance, the “Effective cotton boll number in 0.01 mu” value (cotton; [6]) was 812.0, the Yield increase rate (cotton; [6]) was 9.66% and the Adventitious root number (mung bean seedlings; 0.01 ppm) was 14.51 root/seedling. The “Total adventitious root length” value (mung bean seedlings; 0.01 ppm) was 20.06 cm/seedling, the Adventitious root number (mung bean seedlings; 0.1 ppm) was 13.67 root/seedling and the “Total adventitious root length” value (mung bean seedlings; 0.1 ppm) was 19.40 cm/seedling. For the same substance, the “yield of the treatment field” value (rice) was 720 kg/mu, the Relative content ([1]; 1 h) was 61.61% and the Relative content ([1]; 2 h) was 54.63%. The Relative content ([1]; 3 h) was 53.29%, the pH ([2]; 0.1 ppm in purified water) was “(6.68)” and the pH ([2]; 1.0 ppm in purified water) was “(6.95)”. The pH ([2]; 10.0 ppm in purified water) was “(7.14)”, the pH ([2]; 20.0 ppm in purified water) was “(7.52)” and the pH ([2]; 30.0 ppm in purified water) was “(7.63)”. The pH ([2]; 100.0 ppm in purified water) was “(8.18)”, the pH ([2]; 1000.0 ppm in purified water) was “(10.05)” and the pH ([2]; 10000.0 ppm in purified water) was “(10.87)”. The “Average diseased plant rate” value [3, 7] was 2.2%, the Control effect [3, 7] was 35.29% and the “Average diseased plant rate” value [3, 8] was 5.6%. For the same substance, the Control effect [3, 8] was 35.63%, the “Average diseased plant rate” value [3, 9] was 2.3% and the Control effect [3, 9] was 32.35%. The “Average diseased plant rate” value [3, 10] was 4.8%, the Control effect [3, 10] was 44.83% and the “Average diseased plant rate” value [3, 11] was 1.8%. The Control effect [3, 11] was 47.06%, the “Average diseased plant rate” value [3, 12] was 4.1% and the Control effect [3, 12] was 49.42%. It also gave an Average single-fruit weight (tomato) of 51.3 g, an Ear number/plant (tomato) of 6.9 and a Green fruit number/plant (tomato) of 13.8 fruit. For the same substance, the Red fruit number/plant (tomato) was 46.4 fruit, the Yield per mu (tomato) was 6188.8 kg/mu and the “increase of red-to-green fruit ratio compared with the control” value (tomato) was 5.91%. For the same substance, the red-to-green fruit ratio (tomato) was 3.36, the Yield increase rate (tomato) was 27.15% and the Yield increase rate (tomato; listed as sodium iron chlorophyllin) was “more than 27%”. The “IC50 for chlorophyllase inhibition activity” value (chlorophyllase) was 5.41 ppm.
